Positions of bridges follow the written chain, without caps; N, C: chain ends. Non-standard residues stand in square brackets, D forms with d. Residues, ends and D or L forms follow the SMILES beside them. *: point of attachment. hPhe(3-Cl-4-CF3) = N[C@@H](CCc1ccc(C(F)(F)F)c(Cl)c1)C(=O)O; NMeAla(cPent) = CN[C@@H](CC1CCCC1)C(=O)O; NMeGly(cPent) = CN[C@H](C(=O)O)C1CCCC1; NMeAla(cPr) = CN[C@@H](CC1CC1)C(=O)O; NMeGly(cBu) = CN[C@H](C(=O)O)C1CCC1; NMeCha = CN[C@@H](CC1CCCCC1)C(=O)O; NMeGly(cPr) = CN[C@H](C(=O)O)C1CC1; NMeCba = CN[C@@H](CC1CCC1)C(=O)O; NMeChg = CN[C@H](C(=O)O)C1CCCCC1; NMeD = CN[C@@H](CC(=O)O)C(=O)O; NMeL = CN[C@@H](CC(C)C)C(=O)O; NMeNva = CCC[C@H](NC)C(=O)O; NMeV = CN[C@H](C(=O)O)C(C)C; NMeA = CN[C@@H](C)C(=O)O; Piperidide = C1CCN(*)CC1; Ac5c = NC1(C(=O)O)CCCC1; Aze = O=C(O)[C@@H]1CCN1; Sar = CNCC(=O)O
What was measured:
[1] = Inhibition of biotin-tagged KRAS G12D mutant (unknown origin) to recombinant His-tagged SOS1 (unknown origin) protein-protein interaction incubated for 120 mins by AlphaLISA method; design: species or system Homo sapiens
[2] = Apparent permeability in human Caco-2 cells incubated for 180 mins by LC-MS/MS method; assay type: ADME, cell-based
[3] = tested on: ASPC1; experiment: Cytotoxicity against human AsPC1 cells assessed as reduction in cell viability incubated for 7 days by CellTiterGlo Luminescent Cell Viability Assay; assay type: functional, cell-based; details: ASPC1, 168 h

| Compound | IC50 [1] [nM] | Papp at 3 h [2] [×10⁻⁶ cm/s] | IC50 [3] [nM] |
| --- | --- | --- | --- |
| CC[C@H](C)[C@@H]1NC(=O)[C@H](CC2CCCC2)N(C)C(=O)C[C@@H](C(=O)N2CCCCC2)N(C)C(=O)[C@H](C(C)C)N(C)C(=O)C2(CCCC2)NC(=O)[C@@H]2CCCN2C(=O)[C@H](CCc2ccc(C(F)(F)F)c(Cl)c2)NC(=O)CN(C)C(=O)[C@H](CC2CCCCC2)N(C)C(=O)CN(C)C(=O)CN(C)C1=O ([NMeAla(cPent)]I[Sar][Sar][NMeCha][Sar][hPhe(3-Cl-4-CF3)]P[Ac5c][NMeV][NMeD]-Piperidide; lactam N-11) | 13 | 0.41 | 730 |
| CC[C@H](C)[C@@H]1NC(=O)[C@H](CC2CC2)N(C)C(=O)C[C@@H](C(=O)N2CCCCC2)N(C)C(=O)[C@H](C(C)C)N(C)C(=O)C2(CCCC2)NC(=O)[C@@H]2CCCN2C(=O)[C@H](CCc2ccc(C(F)(F)F)c(Cl)c2)NC(=O)CN(C)C(=O)[C@H](CC2CCCCC2)N(C)C(=O)CN(C)C(=O)CN(C)C1=O ([NMeAla(cPr)]I[Sar][Sar][NMeCha][Sar][hPhe(3-Cl-4-CF3)]P[Ac5c][NMeV][NMeD]-Piperidide; lactam N-11) | 10 | 0.34 | 650 |
| CC[C@H](C)[C@@H]1NC(=O)[C@H](CC2CCC2)N(C)C(=O)C[C@@H](C(=O)N2CCCCC2)N(C)C(=O)[C@H](C(C)C)N(C)C(=O)C2(CCCC2)NC(=O)[C@@H]2CCCN2C(=O)[C@H](CCc2ccc(C(F)(F)F)c(Cl)c2)NC(=O)CN(C)C(=O)[C@H](CC2CCCCC2)N(C)C(=O)CN(C)C(=O)CN(C)C1=O ([NMeCba]I[Sar][Sar][NMeCha][Sar][hPhe(3-Cl-4-CF3)]P[Ac5c][NMeV][NMeD]-Piperidide; lactam N-11) | 10 | 0.41 | 790 |
| CC[C@H](C)[C@@H]1NC(=O)[C@H](CC2CCCCC2)N(C)C(=O)C[C@@H](C(=O)N2CCCCC2)N(C)C(=O)[C@H](C(C)C)N(C)C(=O)C2(CCCC2)NC(=O)[C@@H]2CCCN2C(=O)[C@H](CCc2ccc(C(F)(F)F)c(Cl)c2)NC(=O)CN(C)C(=O)[C@H](CC2CCCCC2)N(C)C(=O)CN(C)C(=O)CN(C)C1=O ([NMeCha]I[Sar][Sar][NMeCha][Sar][hPhe(3-Cl-4-CF3)]P[Ac5c][NMeV][NMeD]-Piperidide; lactam N-11) | 25 | 0.33 | 950 |
| CC[C@H](C)[C@@H]1NC(=O)[C@H](C2CC2)N(C)C(=O)C[C@@H](C(=O)N2CCCCC2)N(C)C(=O)[C@H](C(C)C)N(C)C(=O)C2(CCCC2)NC(=O)[C@@H]2CCCN2C(=O)[C@H](CCc2ccc(C(F)(F)F)c(Cl)c2)NC(=O)CN(C)C(=O)[C@H](CC2CCCCC2)N(C)C(=O)CN(C)C(=O)CN(C)C1=O ([NMeGly(cPr)]I[Sar][Sar][NMeCha][Sar][hPhe(3-Cl-4-CF3)]P[Ac5c][NMeV][NMeD]-Piperidide; lactam N-11) | 8.5 | 0.46 | 720 |
| CC[C@H](C)[C@@H]1NC(=O)[C@H](CC(C)C)N(C)C(=O)C[C@@H](C(=O)N2CCCCC2)N(C)C(=O)[C@H](C)N(C)C(=O)C2(CCCC2)NC(=O)[C@@H]2CCCN2C(=O)[C@H](CCc2ccc(C(F)(F)F)c(Cl)c2)NC(=O)CN(C)C(=O)[C@H](CC2CCCCC2)N(C)C(=O)[C@@H]2CCN2C(=O)[C@H](C)N(C)C1=O ([NMeL]I[NMeA][Aze][NMeCha][Sar][hPhe(3-Cl-4-CF3)]P[Ac5c][NMeA][NMeD]-Piperidide; lactam N-11) | > 1000 | 0.97 | 5200 |
| CC[C@H](C)[C@@H]1NC(=O)[C@H](CC(C)C)N(C)C(=O)C[C@@H](C(=O)N2CCCCC2)N(C)C(=O)[C@H](CC2CCCCC2)N(C)C(=O)C2(CCCC2)NC(=O)[C@@H]2CCCN2C(=O)[C@H](CCc2ccc(C(F)(F)F)c(Cl)c2)NC(=O)CN(C)C(=O)[C@H](CC2CCCCC2)N(C)C(=O)[C@@H]2CCN2C(=O)[C@H](C)N(C)C1=O ([NMeL]I[NMeA][Aze][NMeCha][Sar][hPhe(3-Cl-4-CF3)]P[Ac5c][NMeCha][NMeD]-Piperidide; lactam N-11) | 45 | – | 30000 |

Stronger by IC50 [1], values ahead:

| IC50 [1] [nM] | Papp at 3 h [2] [×10⁻⁶ cm/s] | Compound | IC50 [3] [nM] |
| --- | --- | --- | --- |
| 7.8 | 0.37 | CC[C@H](C)[C@@H]1NC(=O)[C@H](C2CCCCC2)N(C)C(=O)C[C@@H](C(=O)N2CCCCC2)N(C)C(=O)[C@H](C(C)C)N(C)C(=O)C2(CCCC2)NC(=O)[C@@H]2CCCN2C(=O)[C@H](CCc2ccc(C(F)(F)F)c(Cl)c2)NC(=O)CN(C)C(=O)[C@H](CC2CCCCC2)N(C)C(=O)CN(C)C(=O)CN(C)C1=O ([NMeChg]I[Sar][Sar][NMeCha][Sar][hPhe(3-Cl-4-CF3)]P[Ac5c][NMeV][NMeD]-Piperidide; lactam N-11) | 650 |
| 2.8 | 0.91 | CC[C@H](C)[C@@H]1NC(=O)[C@H](C2CCC2)N(C)C(=O)C[C@@H](C(=O)N2CCCCC2)N(C)C(=O)[C@H](C(C)C)N(C)C(=O)C2(CCCC2)NC(=O)[C@@H]2CCCN2C(=O)[C@H](CCc2ccc(C(F)(F)F)c(Cl)c2)NC(=O)CN(C)C(=O)[C@H](CC2CCCCC2)N(C)C(=O)CN(C)C(=O)CN(C)C1=O ([NMeGly(cBu)]I[Sar][Sar][NMeCha][Sar][hPhe(3-Cl-4-CF3)]P[Ac5c][NMeV][NMeD]-Piperidide; lactam N-11) | 130 |
| 4.3 | 0.75 | CC[C@H](C)[C@@H]1NC(=O)[C@H](C2CCCC2)N(C)C(=O)C[C@@H](C(=O)N2CCCCC2)N(C)C(=O)[C@H](C(C)C)N(C)C(=O)C2(CCCC2)NC(=O)[C@@H]2CCCN2C(=O)[C@H](CCc2ccc(C(F)(F)F)c(Cl)c2)NC(=O)CN(C)C(=O)[C@H](CC2CCCCC2)N(C)C(=O)CN(C)C(=O)CN(C)C1=O ([NMeGly(cPent)]I[Sar][Sar][NMeCha][Sar][hPhe(3-Cl-4-CF3)]P[Ac5c][NMeV][NMeD]-Piperidide; lactam N-11) | 210 |
| < 2 | 0.97 | CC[C@H](C)[C@@H]1NC(=O)[C@H](CC(C)C)N(C)C(=O)C[C@@H](C(=O)N2CCCCC2)N(C)C(=O)[C@H](C2CCCCC2)N(C)C(=O)C2(CCCC2)NC(=O)[C@@H]2CCCN2C(=O)[C@H](CCc2ccc(C(F)(F)F)c(Cl)c2)NC(=O)CN(C)C(=O)[C@H](CC2CCCCC2)N(C)C(=O)[C@@H]2CCN2C(=O)[C@H](C)N(C)C1=O ([NMeL]I[NMeA][Aze][NMeCha][Sar][hPhe(3-Cl-4-CF3)]P[Ac5c][NMeChg][NMeD]-Piperidide; lactam N-11) | 140 |
| 3.9 | – | CC[C@H](C)[C@@H]1NC(=O)[C@H](CC(C)C)N(C)C(=O)C[C@@H](C(=O)N2CCCCC2)N(C)C(=O)[C@H](CC(C)C)N(C)C(=O)C2(CCCC2)NC(=O)[C@@H]2CCCN2C(=O)[C@H](CCc2ccc(C(F)(F)F)c(Cl)c2)NC(=O)CN(C)C(=O)[C@H](CC2CCCCC2)N(C)C(=O)[C@@H]2CCN2C(=O)[C@H](C)N(C)C1=O ([NMeL]I[NMeA][Aze][NMeCha][Sar][hPhe(3-Cl-4-CF3)]P[Ac5c][NMeL][NMeD]-Piperidide; lactam N-11) | 240 |
| 5.7 | – | CCC[C@H]1C(=O)N(C)[C@H](C(=O)N2CCCCC2)CC(=O)N(C)[C@@H](CC(C)C)C(=O)N[C@@H]([C@@H](C)CC)C(=O)N(C)[C@@H](C)C(=O)N2CC[C@H]2C(=O)N(C)[C@@H](CC2CCCCC2)C(=O)N(C)CC(=O)N[C@@H](CCc2ccc(C(F)(F)F)c(Cl)c2)C(=O)N2CCC[C@H]2C(=O)NC2(CCCC2)C(=O)N1C ([NMeL]I[NMeA][Aze][NMeCha][Sar][hPhe(3-Cl-4-CF3)]P[Ac5c][NMeNva][NMeD]-Piperidide; lactam N-11) | 310 |

Reference: ChEMBL document CHEMBL5550184, “Structure-activity relationships of middle-size cyclic peptides, KRAS inhibitors derived from an mRNA display” (Bioorg Med Chem, 2024)
